Results from patent US20240059677A1, “SUBSTITUTED PYRIMIDINE DERIVATIVES AS NICOTINIC ACETYLCHOLINESTERASE RECEPTOR ALPHA 6 MODULATOR” (priority 2020, published 2024).
Where two headings read alike, the source gives them in different places.

Target: T1, human nAChRα6-α3 chimera, in addition to β2 and β3^V273S subunits (Homo sapiens, UniProt P32297+Q15825)
T1 construct: expressed in transfected cells
Assay: fluorescence-based calcium assay: inhibition of nicotine stimulated nAChRα6 activity (FLIPR)
Conditions: HEK cell line stably expressing the receptor, 10 min pre-incubation, nicotine EC80, 10-point curve, duplicate wells
Procedure: The ability of the test compounds to inhibit nicotine stimulated nAChRα6 activity was determined in a fluorescence-based calcium assay. Compound activity was determined using a HEK cell line stably expressing a human nAChRα6-α3 chimera, in addition to β2 and β3^V273S subunits (as in Capelli et al, Br J Pharmacol 163(2): 313-29 2011). In this cell line, nicotine stimulated an increase in intracellular calcium concentration, measured as an increase in fluorescence when cells were incubated with a calcium sensitive dye. Test compounds were pre-incubated with cells prior to nicotine stimulation to detect any reduction in the magnitude of the nicotine response.
The day prior to the assay, compounds were serially diluted in DMSO (200× final assay concentration (FAC)), in 384-well plates which were then stored in the dark at room temperature (RT) until use. Cells were seeded at 20 k/well in black, poly-D-lysine coated, clear bottom 384-well plates and incubated for 4 hours at 37° C., followed by overnight incubation at 30° C. The following day, the DMSO compound plate was diluted 1:20 (10×FAC) in assay buffer (HEPES buffered saline solution with 10 mM HEPES, 0.1% bovine serum albumin, 1 mM probenecid). A nicotine solution was prepared in assay buffer (7×FAC) and dispensed into a 384-well plate. The growth media was removed from the cell plate, replaced with 53 μl calcium dye/well (Calcium 5; Molecular Devices) and the plate incubated at 30° C. for 45 minutes. Test compounds were then added to the cells (7 μl of 10×FAC) and incubated for 10 minutes, after which nicotine EC80 (10 μl of 7×FAC) was added and changes in fluorescence measured using a FLIPR plate reader (Molecular Devices).
Compound activity was examined using a 10-point, half-log concentration-response range and each concentration was tested in duplicate wells.

T1 sequence (Q05901 25-458 V273S): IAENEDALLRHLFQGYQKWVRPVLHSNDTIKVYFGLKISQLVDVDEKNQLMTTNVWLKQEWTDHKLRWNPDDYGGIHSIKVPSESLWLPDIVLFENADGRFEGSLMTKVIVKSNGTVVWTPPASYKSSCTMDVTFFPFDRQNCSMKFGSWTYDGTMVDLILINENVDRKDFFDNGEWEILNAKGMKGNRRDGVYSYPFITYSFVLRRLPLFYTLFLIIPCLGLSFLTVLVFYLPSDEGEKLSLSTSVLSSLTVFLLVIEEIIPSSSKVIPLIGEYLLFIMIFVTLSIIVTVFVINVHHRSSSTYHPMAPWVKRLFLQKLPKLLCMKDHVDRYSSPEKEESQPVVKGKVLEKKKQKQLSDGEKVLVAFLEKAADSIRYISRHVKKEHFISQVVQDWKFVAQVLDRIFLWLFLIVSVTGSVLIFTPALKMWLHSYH
T1 sequence (P17787 26-502, stated change not applied, further chain): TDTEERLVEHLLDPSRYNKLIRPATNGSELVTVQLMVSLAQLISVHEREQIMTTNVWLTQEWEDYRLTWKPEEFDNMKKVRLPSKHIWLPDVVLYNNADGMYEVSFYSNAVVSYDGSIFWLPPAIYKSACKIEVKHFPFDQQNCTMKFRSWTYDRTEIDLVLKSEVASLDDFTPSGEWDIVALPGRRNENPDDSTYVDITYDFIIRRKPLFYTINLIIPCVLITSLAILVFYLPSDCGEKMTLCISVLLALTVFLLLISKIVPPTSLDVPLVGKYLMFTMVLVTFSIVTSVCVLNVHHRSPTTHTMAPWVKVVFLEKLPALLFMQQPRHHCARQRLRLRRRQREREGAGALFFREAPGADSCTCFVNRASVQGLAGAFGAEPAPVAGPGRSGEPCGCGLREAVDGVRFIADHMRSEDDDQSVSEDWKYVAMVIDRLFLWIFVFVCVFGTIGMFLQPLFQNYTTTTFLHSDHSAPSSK
T1 sequence (Q15825+P32297 fused with the stated changes): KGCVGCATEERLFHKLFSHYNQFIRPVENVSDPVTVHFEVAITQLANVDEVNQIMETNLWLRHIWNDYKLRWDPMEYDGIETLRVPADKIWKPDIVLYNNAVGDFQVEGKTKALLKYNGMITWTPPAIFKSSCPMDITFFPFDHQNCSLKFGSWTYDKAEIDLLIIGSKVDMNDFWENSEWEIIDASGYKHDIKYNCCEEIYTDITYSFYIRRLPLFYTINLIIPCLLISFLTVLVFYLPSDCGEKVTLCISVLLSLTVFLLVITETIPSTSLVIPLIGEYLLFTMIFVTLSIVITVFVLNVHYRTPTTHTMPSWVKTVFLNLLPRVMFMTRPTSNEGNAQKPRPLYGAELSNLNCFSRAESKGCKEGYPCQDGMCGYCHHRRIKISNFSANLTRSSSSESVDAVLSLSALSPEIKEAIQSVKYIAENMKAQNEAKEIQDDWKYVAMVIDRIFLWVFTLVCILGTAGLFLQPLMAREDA

Work on `Cc1nc(NC(C)[C@@H]2CCCN2C)ncc1-c1ccc(C(F)(F)F)cc1F` (single isomer, unassigned) [Example 132a, 5-(2-fluoro-4-(trifluoromethyl)phenyl)-4-methyl-N-((1*R)-1-((2S)-1-methylpyrrolidin-2-yl)ethyl)pyrimidin-2-amine] yielded an IC50 (read-out: IC50) of 0.092 µM.
Compound `Cc1nc(NC(C)[C@@H]2CCCN2C)ncc1-c1ccc(C(F)(F)F)cc1F` (single isomer, unassigned) [Example 132b, 5-(2-fluoro-4-(trifluoromethyl)phenyl)-4-methyl-N-((1*S)-1-((2S)-1-methylpyrrolidin-2-yl)ethyl)pyrimidin-2-amine] has an IC50 (read-out: IC50) of 0.097 µM.
Work on `Cc1nc(NC[C@H]2NCC[C@@H]2F)ncc1-c1ccc(C(F)(F)F)cc1F` (single isomer, unassigned) [Example 133a, 5-(2-fluoro-4-(trifluoromethyl)phenyl)-N-(((2*S,3*R)-3-fluoropyrrolidin-2-yl)methyl)-4-methyl-pyrimidin-2-amine] yielded an IC50 (read-out: IC50) of 0.305 µM.
`Cc1nc(NC[C@H]2NCC[C@@H]2F)ncc1-c1ccc(C(F)(F)F)cc1F` (single isomer, unassigned) [Example 133b, 5-(2-fluoro-4-(trifluoromethyl)phenyl)-N-(((2*R,3*S)-3-fluoropyrrolidin-2-yl)methyl)-4-methyl-pyrimidin-2-amine] was tested, and the IC50 (read-out: IC50) was 0.3 µM.
With `Cc1nc(NCC2CCC(C)N2C)ncc1-c1ccc(C(F)(F)F)cc1F` (single isomer, unassigned) [Example 138a, N-(((2*R,5*R)-1,5-dimethylpyrrolidin-2-yl)methyl)-5-(2-fluoro-4-(trifluoromethyl)phenyl)-4-methyl-pyrimidin-2-amine] the IC50 (read-out: IC50) was 0.207 µM.
In the case of `Cc1nc(NCC2CCC(C)N2C)ncc1-c1ccc(C(F)(F)F)cc1F` (single isomer, unassigned) [Example 138b, N-(((2*S,5*S)-1,5-dimethylpyrrolidin-2-yl)methyl)-5-(2-fluoro-4-(trifluoromethyl)phenyl)-4-methyl-pyrimidin-2-amine], the IC50 (read-out: IC50) is reported as 0.085 µM.
Compound `Cc1nc(NCC2CCC(C)N2C)ncc1-c1ccc(C(F)(F)F)cc1F` (single isomer, unassigned) [Example 138c, N-(((2*R,5*S)-1,5-dimethylpyrrolidin-2-yl)methyl)-5-(2-fluoro-4-(trifluoromethyl)phenyl)-4-methyl-pyrimidin-2-amine] has an IC50 (read-out: IC50) of 0.069 µM.
In the case of `Cc1nc(NCC2CCC(C)N2C)ncc1-c1ccc(C(F)(F)F)cc1F` (single isomer, unassigned) [Example 138d, N-(((2*S,5*R)-1,5-dimethylpyrrolidin-2-yl)methyl)-5-(2-fluoro-4-(trifluoromethyl)phenyl)-4-methyl-pyrimidin-2-amine], the IC50 (read-out: IC50) is reported as 0.025 µM.
Compound `Cc1nc(NCCC2CCCN2C)ncc1-c1ccccc1` (centres unmarked) [Example 1, 4-methyl-N-(2-(1-methylpyrrolidin-2-yl)ethyl)-5-phenylpyrimidin-2-amine] has an IC50 (read-out: IC50) of 0.048 µM.
Work on `CN1CCCC1CCNc1ncc(-c2ccccc2)cn1` (centres unmarked) [Example 2, N-(2-(1-methylpyrrolidin-2-yl)ethyl)-5-phenylpyrimidin-2-amine] yielded an IC50 (read-out: IC50) of 0.302 µM.
Compound `CN1CCCC1CCNc1ncc(-c2ccc(F)cc2)cn1` (centres unmarked) [Example 3, 5-(4-fluorophenyl)-N-(2-(1-methylpyrrolidin-2-yl)ethyl)pyrimidin-2-amine] has an IC50 (read-out: IC50) of 0.331 µM.
`CN1CCCC(CNc2ncc(-c3ccc(F)cc3)cn2)C1` (centres unmarked) [Example 4, 5-(4-fluorophenyl)-N-((1-methylpiperidin-3-yl)methyl)pyrimidin-2-amine] was tested, and the IC50 (read-out: IC50) was 0.211 µM.
`CN1CCCC(Nc2ncc(-c3ccc(F)cc3)cn2)C1` (centres unmarked) [Example 5, 5-(4-fluorophenyl)-N-(1-methylpiperidin-3-yl)pyrimidin-2-amine] gave an IC50 (read-out: IC50) of 0.635 µM.
With `CC(C)N1CCCC(Nc2ncc(-c3ccc(F)cc3)cn2)C1` (centres unmarked) [Example 6, 5-(4-fluorophenyl)-N-(1-isopropylpiperidin-3-yl)pyrimidin-2-amine] the IC50 (read-out: IC50) was 0.123 µM.
`CN(C)C1CCCC(Nc2ncc(-c3ccc(F)cc3)cn2)C1` (centres unmarked) [Example 7, N^1-(5-(4-fluorophenyl)pyrimidin-2-yl)-N^3,N^3-dimethylcyclohexane-1,3-diamine] was tested, and the IC50 (read-out: IC50) was 0.59 µM.
Compound `CN1CCCCC1CNc1ncc(-c2ccc(F)cc2)cn1` (centres unmarked) [Example 8, 5-(4-fluorophenyl)-N-((1-methylpiperidin-2-yl)methyl)pyrimidin-2-amine] has an IC50 (read-out: IC50) of 0.286 µM.
`Cc1nc(NC2CCCN(C(C)C)C2)ncc1-c1ccc(F)cc1` (centres unmarked) [Example 9, 5-(4-fluorophenyl)-N-(1-isopropylpiperidin-3-yl)-4-methyl-pyrimidin-2-amine] gave an IC50 (read-out: IC50) of 0.264 µM.
With `CCN1CCCCC1CNc1ncc(-c2ccc(F)cc2F)c(C)n1` (centres unmarked) [Example 10, 5-(2,4-difluorophenyl)-N-((1-ethylpiperidin-2-yl)methyl)-4-methyl-pyrimidin-2-amine] the IC50 (IC50 (μM)) was 0.201 µM.
`Cc1nc(NCC2(N(C)C)CCCC2)ncc1-c1ccc(F)cc1F` [Example 11, 5-(2,4-difluorophenyl)-N-((1-(dimethylamino)cyclopentyl)methyl)-4-methyl-pyrimidin-2-amine] gave an IC50 (read-out: IC50) of 0.246 µM.
With `Cc1nc(NC2CC3CCC(C2)N3C)ncc1-c1ccc(F)cc1F` (centres unmarked) [Example 12, N-(5-(2,4-difluorophenyl)-4-methyl-pyrimidin-2-yl)-8-methyl-8-azabicyclo[3.2.1]octan-3-amine] the IC50 (read-out: IC50) was 0.108 µM.
`Cc1nc(NCC2CCN(C)C2)ncc1-c1ccc(F)cc1F` (centres unmarked) [Example 13, 5-(2,4-difluorophenyl)-4-methyl-N-((1-methylpyrrolidin-3-yl)methyl) pyrimidin-2-amine] showed an IC50 (read-out: IC50) of 0.05 µM.
`Cc1nc(NCCC2CCCN2C)ncc1-c1ccc(F)cc1F` (centres unmarked) [Example 14, 5-(2,4-difluorophenyl)-4-methyl-N-(2-(1-methylpyrrolidin-2-yl)ethyl) pyrimidin-2-amine] showed an IC50 (read-out: IC50) of 0.042 µM.
With `Cc1nc(NCC2CCCN2C)nnc1-c1ccc(F)cc1F` (centres unmarked) [Example 15, 6-(2,4-difluorophenyl)-5-methyl-N-((1-methylpyrrolidin-2-yl)methyl)-1,2,4-triazin-3-amine] the IC50 (read-out: IC50) was 1.94 µM.
Work on `COc1ccc(-c2cnc(NCCC3CCCN3C)nc2C)c(F)c1` (centres unmarked) [Example 16, 5-(2-fluoro-4-methoxyphenyl)-4-methyl-N-(2-(1-methylpyrrolidin-2-yl)ethyl)pyrimidin-2-amine] yielded an IC50 (read-out: IC50) of 0.075 µM.
Work on `COc1ccc(-c2cnc(NCC3CCCCN3C)nc2C)c(F)c1` (centres unmarked) [Example 17, 5-(2-fluoro-4-methoxyphenyl)-4-methyl-N-((1-methylpiperidin-2-yl)methyl) pyrimidin-2-amine] yielded an IC50 (read-out: IC50) of 0.02 µM.
`CN1CCCC1CNc1ncc(-c2ccc(F)cc2F)c(C#N)n1` (centres unmarked) [Example 19, 5-(2,4-difluorophenyl)-2-(((1-methylpyrrolidin-2-yl)methyl)amino) pyrimidine-4-carbonitrile] was tested, and the IC50 (read-out: IC50) was 0.216 µM.
For `Cc1nc(NCC2CCCCN2C)nnc1-c1ccc(F)cc1F` (centres unmarked) [Example 20, 6-(2,4-difluorophenyl)-5-methyl-N-((1-methylpiperidin-2-yl)methyl)-1,2,4-triazin-3-amine], the IC50 (read-out: IC50) was 0.49 µM.
`Cc1nc(NCCC2CCCN2C)nnc1-c1ccc(F)cc1F` (centres unmarked) [Example 21, 6-(2,4-difluorophenyl)-5-methyl-N-(2-(1-methylpyrrolidin-2-yl)ethyl)-1,2,4-triazin-3-amine] gave an IC50 (read-out: IC50) of 0.599 µM.
`Cc1nc(NC2CCN(C(C)C)C2)ncc1-c1ccc(F)cc1F` (centres unmarked) [Example 22, 5-(2,4-difluorophenyl)-N-(1-isopropylpyrrolidin-3-yl)-4-methyl-pyrimidin-2-amine] showed an IC50 (read-out: IC50) of 0.05 µM.
Work on `COc1ccc(-c2nnc(NCCC3CCCN3C)nc2C)c(F)c1` (centres unmarked) [Example 23, 6-(2-fluoro-4-methoxyphenyl)-5-methyl-N-(2-(1-methylpyrrolidin-2-yl)ethyl)-1,2,4-triazin-3-amine] yielded an IC50 (read-out: IC50) of 0.233 µM.
With `Cc1nc(NC[C@@H]2CCCN2C)ncc1-c1ccc(F)cc1F` [Example 24a, (S)-5-(2,4-difluorophenyl)-4-methyl-N-((1-methylpyrrolidin-2-yl)methyl) pyrimidin-2-amine] the IC50 (read-out: IC50) was 0.062 µM.
`COc1ccc(-c2cnc(NCC3CCCCN3C)nc2C#N)c(F)c1` (centres unmarked) [Example 25, 5-(2-fluoro-4-methoxyphenyl)-2-(((1-methylpiperidin-2-yl)methyl)amino) pyrimidine-4-carbonitrile] gave an IC50 (read-out: IC50) of 0.034 µM.
Work on `COc1ccc(-c2nnc(NCC3CCCCN3C)nc2C)c(F)c1` (centres unmarked) [Example 26, 6-(2-fluoro-4-methoxyphenyl)-5-methyl-N-((1-methylpiperidin-2-yl)methyl)-1,2,4-triazin-3-amine] yielded an IC50 (read-out: IC50) of 0.156 µM.
For `COc1ccc(-c2cnc(NCCC3CCCN3C)nc2C#N)c(F)c1` (centres unmarked) [Example 27, 5-(2-fluoro-4-methoxyphenyl)-2-((2-(1-methylpyrrolidin-2-yl)ethyl)amino) pyrimidine-4-carbonitrile], the IC50 (read-out: IC50) was 0.056 µM.
`Cc1nc(NC2CCN(C)C2)ncc1-c1ccc(F)cc1F` (centres unmarked) [Example 29, 5-(2,4-difluorophenyl)-4-methyl-N-(1-methylpyrrolidin-3-yl)pyrimidin-2-amine] was tested, and the IC50 (read-out: IC50) was 0.095 µM.
